Data published in patent publication US6713048B2, “Δ9 tetrahydrocannabinol (Δ9 THC) solution metered dose inhalers and methods of use” (Virginia Commonwealth University, priority 1998, dated 2004).
“Also recorded” adds a separate entry of the source.

Assays:
[1] = Blood levels of Δ^9-THC by LC-MS; details: mouse, whole blood
Experimental: (§1) Whether inhalation exposure to Δ^9 THC aerosol would elicit pharmacological effects indicative of cannabinoid activity in mice (Compton, D. R., Rice, K. C., De Costa, B. R., Rzdan, R. K., Melvin, L. S., Johnson, M. R., Martin, B. R., Cannabinoid structure-activity relationships: Correlation of receptor binding and in vivo activities, J Pharmacol Exp Ther, 265:218-226 (1993); Little et al., 1988) was determined.
(§2) Blood and brain levels of Δ^9-THC were determined as follows. Extraction and LC-MS quantification of Δ^9-THC from whole blood and brain tissue were modified from Lichtman, A. H., Poklis, J. L., Wilson, D. M., Martin, B. R., The pharmacological activity of inhalation exposure to marijuana smoke in mice, Drug Alc Depend, 63:107-116 (2001). Particularly, THC and 2H^3-THC were extracted from brain material which contains a high degree of lipids. Acetonitrile was added to the pelletized solids and stored in a freezer overnight to separate the acetonitrile layer (which contained THC/2H^3-THC) from the aqueous layers. The following day the acetonitrile layer was removed. In the Lichtman et al., study, 2 ml of 9:1 NaOH was added and the sample was vortexed. Four ml of 9:1 hexane:ethyl acetate was added and the sample was vortexed and spun […] for 30 minutes. The vials were then centrifuged at 4,000 rpm […] for 10 minutes. The organic layer was removed and evaporated. Upon drying, a derivatizing agent was added and the sample was vortexed, and each sample analyzed by GC/MS. In the present experimentation, the acetonitrile was instead evaporated to dryness under nitrogen. The material was then resolubilized in 0.1 ml methanol. LC-MS identification was used to quantify Δ^9-THC/2H^3-THC in blood and brain matrices. […] Fifty ng of ^2H3-THC (Radian Corporation, Austin, Tex.) was added to the blood sample, brain homogenate, and calibrators as an internal standard. Following an equilibration period, 2.5 ml of cold acetonitrile (HPLC grade, Fisher Scientific, Raleigh, N.C.) was added drop-wise while vortexing. The samples were then centrifuged (Precision Vari-Hi-Speed Centricone, Precision Scientific Co., Chicago, Ill.) at 2500 rpm for 15 minutes to pelletize solids, then stored in the freezer (−20° C.) overnight, allowing the acetonitrile layer to separate from the aqueous layers. The acetonitrile layer was then removed and evaporated to dryness under nitrogen. The Δ^9-THC/^2H3-THC was then resolubilized in 0.1 ml methanol (HPLC grade, Fisher Scientific).
(§3) LC-MS identification was used for quantification of Δ^9-THC and ^2H3-THC in blood and brain matrices using an 85:15 methanol: 1% glacial acetic acid (0.1% formic acid) mobile phase. A guard column was used inline with the standard reverse phase C18 column. The mass spectrometer was run in APCI+mode. Ions analyzed in single ion monitoring mode were 315 for Δ^9-THC and 318 for ^2H3-THC. A calibration curve was constructed for each assay based on linear regression using the peak-area ratios of Δ^9-THC to ^2H3-THC of the extracted calibration samples.

[2] = in vivo; details: for concentration at 20 min: brain
Experimental: as §1, §2, §3

[3] = tested on: Spasticity related to multiple sclerosis; details: oral 5 to 15 mg THC; 8 patients, single blind; cited from earlier work
[4] = tested on: intra ocular pressure; details: intravenous THC 0.022 or 0.044 mg/kg; ten subjects with normal intra ocular pressure; cited from earlier work
[5] = tested on: airways; details: nebulized micro-aerosol, propylene glycol vehicle; cited from earlier work
[6] = tested on: asthmatic patients; details: low concentration aerosol; cited from earlier work
[7] = tested on: Nausea and emesis due to Cancer chemotherapy; details: oral THC 15 mg/m^2, cited from earlier work
[8] = tested on: Nausea and emesis due to Cancer chemotherapy; details: oral 15 mg THC, 116 patients, cited from earlier work
[9] = tested on: Pain due to advanced cancer; details: oral 5, 10, 15 or 20 mg THC; 10 patients; cited from earlier work
[10] = tested on: Pain due to advanced cancer; details: 10 and 20 mg THC, 60 and 120 codeine; 34 patients; cited from earlier work
[11] = tested on: Spasticity related to multiple sclerosis; details: 5 or 10 mg THC; 9 patients; cited from earlier work
[12] = tested on: healthy and asthmatic subjects; details: aerosolized Δ^9-THC from MDI, cited from earlier work
[13] = 10 mg prochloperzine or placebo

CCCCCc1cc(O)c2c(c1)OC(C)(C)[C@@H]1CCC(C)=C[C@@H]21 (relative stereo) [Δ^9 THC, (6aR-trans)-6a,7,8,10a-tetrahydro-6,6,9-trimethyl-3-pentyl-6H-dibenzo[b,d]-pyran-1-ol]
concentration at 20 min ([1]; inhaled, 20 actuations): 409 ± 86 ng/g
concentration at 20 min ([1]; inhaled, 40 actuations): 788 ± 273 ng/g
concentration at 20 min ([1]; inhaled, 60 actuations): 1130 ± 240 ng/g
concentration at 20 min ([1]; iv, 1 mg/kg): 102 ± 6 ng/g
concentration at 20 min ([1]; iv, 3 mg/kg): 365 ± 39 ng/g
concentration at 20 min ([1]; iv, 10 mg/kg): 1320 ± 38 ng/g
brain levels relative to blood levels ([2]; following inhalation, mice): roughly equivalent; also recorded: equivalent concentrations
brain levels higher than those found in blood ([2]; i.v. administration, mice): approximately two to three
Kp at 20 min ([2]; mouse, brain relative to whole blood, iv): 2 to 3
concentration at 20 min ([2]; mouse, inhaled, 20 actuations): 340 ± 36 ng/g
concentration at 20 min ([2]; mouse, inhaled, 40 actuations): 791 ± 94 ng/g
concentration at 20 min ([2]; mouse, inhaled, 60 actuations): 890 ± 151 ng/g
concentration at 20 min ([2]; mouse, iv, 1 mg/kg): 307 ± 28 ng/g
concentration at 20 min ([2]; mouse, iv, 3 mg/kg): 854 ± 42 ng/g
concentration at 20 min ([2]; mouse, iv, 10 mg/kg): 3310 ± 190 ng/g
patients with both objective and subjective improvement [3]: tremor. 2 of 8 patients had
patients with mild subjective improvement in tremor [3]: 5 of 8 patients had mild
mean decrease of intra ocular pressure [4]: presser by mean of 37%
bronchial and systemic effects [5]: bronchodilation without systemic effects
bronchial and systemic effects [6]: bronchodilation without systemic side effects
patients with reduction in chemotherapy-induced nausea and vomiting ([7]; 36 patients refractory to prochlorperazine or thiethylperazine): 64% of patients given THC
side effects ([7]; 36 patients): effects included dysphoria;
antiemetic effect compared with placebo [8, 13]: each greater than placebo;
antiemetic effects, THC vs prochlorperazine [8, 13]: Equal antiemetic effects
CNS side effects compared with prochlorperazine ([8]; 10 mg prochloperzine): considerately more CNS
appetite [9]: appetite stimulation,
mood [9]: elevated mood
pain [9]: Pain relief
analgesic potency compared with codeine [10]: greater potency than
degree of analgesia compared with codeine [10]: THC produced a similar
side effects [11]: treatment, minimal side
spasticity compared to placebo treatment [11]: Decrease in spasticity
systemic side effects (increased heart rate, subjective reports of being 'high') ([12]; healthy patients, at higher doses): substantial systemic side effects
bronchial effect in healthy patients ([12]; healthy patients): bronchodilation was seen
bronchial effect in asthmatic patients ([12]; some asthmatic patients): bronchoconstriction occurred
